Source: ChEMBL document CHEMBL5046308, “Heterobifunctional Compounds as BRAF Degraders for Treating Cancer” (ACS Med Chem Lett, 2022)

molecular target: Protein cereblon/Serine/threonine-protein kinase B-raf (Homo sapiens, UniProt P15056+Q96SW2, V600E); assay: Protac activity at CRBN/BRAF V600E mutant (unknown origin) assessed as BRAF V600E degradation by HiBit cellular BRAF V600E degradation assay
Sequence (P15056 2-766 V600E limits assumed, stated change not applied): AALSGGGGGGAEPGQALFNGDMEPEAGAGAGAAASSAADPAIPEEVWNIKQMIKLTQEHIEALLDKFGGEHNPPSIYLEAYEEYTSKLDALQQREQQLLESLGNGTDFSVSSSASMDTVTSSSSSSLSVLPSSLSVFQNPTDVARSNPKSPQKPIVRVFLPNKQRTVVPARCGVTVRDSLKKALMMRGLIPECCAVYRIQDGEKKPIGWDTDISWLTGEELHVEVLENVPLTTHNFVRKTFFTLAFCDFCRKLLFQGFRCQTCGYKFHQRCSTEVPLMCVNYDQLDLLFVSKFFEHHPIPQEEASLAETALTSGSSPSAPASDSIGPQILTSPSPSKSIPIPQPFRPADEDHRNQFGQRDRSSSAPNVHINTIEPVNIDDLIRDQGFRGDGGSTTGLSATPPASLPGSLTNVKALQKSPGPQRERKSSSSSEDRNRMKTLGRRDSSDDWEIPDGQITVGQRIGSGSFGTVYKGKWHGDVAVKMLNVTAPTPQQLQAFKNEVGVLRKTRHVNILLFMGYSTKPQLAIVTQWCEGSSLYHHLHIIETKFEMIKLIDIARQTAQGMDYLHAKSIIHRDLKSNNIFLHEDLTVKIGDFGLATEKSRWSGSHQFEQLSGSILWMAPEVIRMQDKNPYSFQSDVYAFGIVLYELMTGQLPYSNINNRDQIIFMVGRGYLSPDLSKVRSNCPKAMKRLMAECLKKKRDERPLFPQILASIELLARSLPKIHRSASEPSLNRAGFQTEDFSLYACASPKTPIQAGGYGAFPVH
Sequence (Q96SW2 whole entry, stated change not applied): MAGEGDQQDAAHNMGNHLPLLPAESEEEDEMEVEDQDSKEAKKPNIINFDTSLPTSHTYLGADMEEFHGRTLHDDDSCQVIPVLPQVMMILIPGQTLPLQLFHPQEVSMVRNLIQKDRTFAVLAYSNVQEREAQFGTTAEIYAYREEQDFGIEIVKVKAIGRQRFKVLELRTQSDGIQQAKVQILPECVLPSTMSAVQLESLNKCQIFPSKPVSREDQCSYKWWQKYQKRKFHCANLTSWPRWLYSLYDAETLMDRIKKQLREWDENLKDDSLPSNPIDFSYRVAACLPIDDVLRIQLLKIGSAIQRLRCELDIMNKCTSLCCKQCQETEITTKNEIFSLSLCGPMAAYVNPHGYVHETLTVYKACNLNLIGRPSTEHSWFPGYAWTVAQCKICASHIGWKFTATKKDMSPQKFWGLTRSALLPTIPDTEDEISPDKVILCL

| SMILES | DC50 [nM] |
| --- | --- |
| CCN(C)S(=O)(=O)Nc1ccc(F)c(C(=O)c2c[nH]c3ncc(-c4ccc(N5CCN(C(=O)CCCNc6cccc7c6C(=O)N(C6CCC(=O)NC6=O)C7=O)CC5)nc4)cc23)c1F (stereo unspecified) | 26 |
| CCN(C)S(=O)(=O)Nc1ccc(F)c(C(=O)c2c[nH]c3ncc(-c4ccc(N5CCN(C(=O)CCCOc6cccc7c6C(=O)N(C6CCC(=O)NC6=O)C7=O)CC5)cc4)cc23)c1F (stereo unspecified) | 16 |
| CCN(C)S(=O)(=O)Nc1ccc(F)c(C(=O)c2c[nH]c3ncc(-c4ccc(N5CCN(C(=O)CCCOc6cccc7c6C(=O)N(C6CCC(=O)NC6=O)C7=O)CC5)nc4)cc23)c1F (stereo unspecified) | 10 |
| CCN(C)S(=O)(=O)Nc1ccc(F)c(C(=O)c2c[nH]c3ncc(-c4ccc(N5CCN(C(=O)[C@H]6C[C@H](Nc7cccc8c7C(=O)N(C7CCC(=O)NC7=O)C8=O)C6)CC5)nc4)cc23)c1F (stereo partly specified) | 10 |
| CCN(C)S(=O)(=O)Nc1ccc(F)c(C(=O)c2c[nH]c3ncc(-c4ccc(N5CCN(C(=O)[C@H]6C[C@H](Nc7cccc8c7C(=O)N(C7CCC(=O)NC7=O)C8=O)C6)CC5)cc4)cc23)c1F (stereo partly specified) | 23 |
| CCN(C)S(=O)(=O)Nc1ccc(F)c(C(=O)c2c[nH]c3ncc(-c4cnc(N5CCN(C(=O)CCCOc6cccc7c6C(=O)N(C6CCC(=O)NC6=O)C7=O)CC5)nc4)cc23)c1F (stereo unspecified) | 20 |
